Results on one compound are retold here after PMC3102069, “Charge Isomers of Myelin Basic Protein: Structure and Interactions with Membranes, Nucleotide Analogues, and Calmodulin” (PLoS ONE, 2011).

The test addresses T1, rmC1 (recombinant murine 18.5-kDa myelin basic protein, C1 charge component); rmC8 is its six-fold Gln variant (Mus musculus, UniProt P04370).
T1 construct: gene Mbp
The experiment in a line: fluorescence, FRET from Trp to mant (ex […] nm, em […] nm). The class given is binding. To be noted: 0.25 µM rmC1, 0.5-12.5 µM nucleotide, 10 mM HEPES pH 7.5; labelled compound.

T1 sequence (P04370 1-169 isoform P04370-5 limits assumed): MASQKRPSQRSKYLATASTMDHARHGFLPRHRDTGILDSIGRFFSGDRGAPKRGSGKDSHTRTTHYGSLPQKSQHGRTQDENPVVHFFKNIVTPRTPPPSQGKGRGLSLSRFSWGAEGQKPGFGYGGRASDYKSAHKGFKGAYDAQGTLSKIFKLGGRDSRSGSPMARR

For the compound `CNc1ccccc1C(=O)O[C@H]1[C@@H](O)[C@H](n2cnc3c(N)ncnc32)O[C@@H]1COP(=O)(O)OP(=O)(O)OP(=O)(O)O` [mant-ATP], the “fluorescence, FRET from Trp to mant (ex 280 nm, em 448 nm)” value is “while both mant-ATP and mant-GTP bound to rmC1, mant-AMP did not”.
